{
  "source": "patent US8993634B2",
  "about": "“Methods and use of compounds that bind to Her2/neu receptor complex” (The Trustees Of The University Of Pennsylvania, priority 2010, dated 2015)",
  "key": {"T6-17 cells": {"system": "T6-17 cells", "test": "Anchorage-independent growth (soft agar colony) screening, T6-17 cells", "format": "cell-based, murine", "conditions": "p<0.05, FIG. 1", "description": "(§1) Targeted molecules were screened in vitro for anti-tumor activity using a modified […] growth of transformed cell assay, as described in Fukazawa et al. (1995), Anal. Biochem., 10:83-90. Anchorage-independent growth capability is perhaps the best indicator of the malignant phenotype and is determined by efficiency of cells to form colonies in soft agar (Drebin, et al., 1985). All experiments were conducted in 6 cm dishes in triplicate. Agar bottom layers consisted of 3 ml 0.25% agarose/DMEM (Dulbecco's Modified Eagle Medium) supplemented with 10% FBS (Fetal Bovine Serum), 2 mM L-glutamine, and 100μ/ml Penicillin/1 μg/ml Streptomycin. About 1000-2000 cells T6-17/SK-BR-3 are layered on the top in 1 ml 0.18% agarose/DMEM, 10% FBS, 2 mM L-glutamine, and 100 u/ml Penicillin/i 1 μg/ml Streptomycin. Cultures were treated every 3 days with 0.5 ml of supplemented DMEM containing measured amounts of the Her2 inhibitors, or DMSO (dimethyl sulfoxide) alone. On the day before the colonies were counted, the samples were incubated with 1 ml of Hank's Balanced Salt Solution containing 1 mg/ml p-iodonitrotetrazolium violet (INT, Sigma) to stain colonies. The next day, colonies were counted using a 7× achromatic magnifying eyepiece (Bausch and Lomb). Triplicate cultures were counted on day 21 and will be verified by at least two different persons. […]"}, "SK-BR-3 cells": {"system": "SK-BR-3 cells", "test": "Anchorage-independent growth (soft agar colony) screening, SK-BR-3 cells", "format": "cell-based, human", "conditions": "p<0.05, FIG. 1", "description": "as §1"}},
  "data": [
    {"smiles": "CC(C)(C#Cc1cc(C(F)(F)F)cc(C(F)(F)F)c1)NC(=S)Nc1cccc(F)c1", "note": "[S22—04]", "values": [
      {"measurement": "cellular growth in culture (colonies in soft agar)", "setting": "T6-17 cells", "result": "reduced cellular growth in culture"},
      {"measurement": "cellular growth in culture (colonies in soft agar)", "setting": "SK-BR-3 cells", "result": "reduced cellular growth in culture"}
    ]}
  ]
}
